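Compound exposure: 48 hours, 5 concentrations, 96-well plates. TGI: concentration producing complete growth inhibition.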
What was measured:
Test in all cases: NCI tumour cell line growth inhibition, 48 h
HCC-2998 colon = tested on: HCC-2998 colon
SK-MEL-28 melanoma = tested on: SK-MEL-28 melanoma
HCT-116 colon = tested on: HCT-116 colon
UACC-257 melanoma = tested on: UACC-257 melanoma
NCI-H460 lung = tested on: NCI-H460 lung
SK-MEL-5 melanoma = tested on: SK-MEL-5 melanoma
HOP-92 NSCLC = tested on: HOP-92 NSCLC
K-562 leukemia = tested on: K-562 leukemia
RXF 393 renal = tested on: RXF 393 renal
P388 leukemia = tested on: P388 leukemia
KM20L2 colon = tested on: KM20L2 colon
EKVX NSCLC = tested on: EKVX NSCLC
SNB-75 CNS = tested on: SNB-75 CNS
COLO 205 colon = tested on: COLO 205 colon
HL-60(TB) leukemia = tested on: HL-60(TB) leukemia
HOP-62 NSCLC = tested on: HOP-62 NSCLC
HCT-15 colon = tested on: HCT-15 colon
MALME-3M melanoma = tested on: MALME-3M melanoma
OVCAR-3 ovarian = tested on: OVCAR-3 ovarian
CAKI-1 renal = tested on: CAKI-1 renal
LOX IMVI melanoma = tested on: LOX IMVI melanoma
DLD-1 colon = tested on: DLD-1 colon
MCF7 breast = tested on: MCF7 breast
NCI-H522 lung = tested on: NCI-H522 lung
DMS 273 small cell lung = tested on: DMS 273 small cell lung
U251 CNS = tested on: U251 CNS
A549 NSCLC = tested on: A549 NSCLC
SNB-78 CNS = tested on: SNB-78 CNS
KM12 colon = tested on: KM12 colon
NCI/ADR-RES ovarian = tested on: NCI/ADR-RES ovarian
SN12C renal = tested on: SN12C renal
NCI-H226 lung = tested on: NCI-H226 lung
A498 renal = tested on: A498 renal
HT29 colon = tested on: HT29 colon
SK-MEL-2 melanoma = tested on: SK-MEL-2 melanoma
SF-539 CNS = tested on: SF-539 CNS
OVCAR-5 ovarian = tested on: OVCAR-5 ovarian
SK-OV-3 ovarian = tested on: SK-OV-3 ovarian
NCI-H23 lung = tested on: NCI-H23 lung
SN12K1 renal = tested on: SN12K1 renal
SNB-19 CNS = tested on: SNB-19 CNS
XF 498 CNS = tested on: XF 498 CNS
UACC-62 melanoma = tested on: UACC-62 melanoma
OVCAR-8 ovarian = tested on: OVCAR-8 ovarian
IGROV1 ovarian = tested on: IGROV1 ovarian
SW-620 colon = tested on: SW-620 colon
P388/ADR leukemia = tested on: P388/ADR leukemia
HOP-18 NSCLC = tested on: HOP-18 NSCLC
SF-295 CNS = tested on: SF-295 CNS
M19-MEL melanoma = tested on: M19-MEL melanoma
RPMI-8226 leukemia = tested on: RPMI-8226 leukemia
CCRF-CEM leukemia = tested on: CCRF-CEM leukemia
SF-268 CNS = tested on: SF-268 CNS
OVCAR-4 ovarian = tested on: OVCAR-4 ovarian
UO-31 renal = tested on: UO-31 renal
M14 melanoma = tested on: M14 melanoma
DMS 114 small cell lung = tested on: DMS 114 small cell lung
RXF-631 renal = tested on: RXF-631 renal
SR leukemia = tested on: SR leukemia
786-0 renal = tested on: 786-0 renal
ACHN renal = tested on: ACHN renal
MOLT-4 leukemia = tested on: MOLT-4 leukemia
TK-10 renal = tested on: TK-10 renal
LXFL 529 NSCLC = tested on: LXFL 529 NSCLC

In the case of CCCCC1(C2c3ccccc3Oc3ccccc32)C(=O)N(c2ccccc2)N(c2ccccc2)C1=O, the TGI (HCC-2998 colon) is reported as over 94.5 µM, the TGI (SK-MEL-28 melanoma) is reported as over 100 µM and the TGI (HCT-116 colon) is reported as over 100 µM. For the same molecule, the TGI (UACC-257 melanoma) was 99 µM, the TGI (NCI-H460 lung) was over 100 µM and the TGI (SK-MEL-5 melanoma) was over 100 µM. The TGI (HOP-92 NSCLC) was over 100 µM, the TGI (K-562 leukemia) was over 100 µM and the TGI (RXF 393 renal) was over 100 µM. It also gave a TGI (P388 leukemia) of 45.2 µM, a TGI (KM20L2 colon) of over 100 µM and a TGI (EKVX NSCLC) of over 100 µM. For the same molecule, the TGI (SNB-75 CNS) was over 100 µM, the TGI (COLO 205 colon) was over 100 µM and the TGI (HL-60(TB) leukemia) was over 100 µM. It also gave a TGI (HOP-62 NSCLC) of over 100 µM, a TGI (HCT-15 colon) of over 100 µM and a TGI (MALME-3M melanoma) of over 100 µM. It also gave a TGI (OVCAR-3 ovarian) of over 100 µM, a TGI (CAKI-1 renal) of over 29.6 µM and a TGI (LOX IMVI melanoma) of over 100 µM. For the same molecule, the TGI (DLD-1 colon) was over 100 µM, the TGI (MCF7 breast) was over 100 µM and the TGI (NCI-H522 lung) was 13.1 µM. The TGI (DMS 273 small cell lung) was over 100 µM, the TGI (U251 CNS) was over 100 µM and the TGI (A549 NSCLC) was over 100 µM. The TGI (SNB-78 CNS) was over 88.5 µM, the TGI (KM12 colon) was over 100 µM and the TGI (NCI/ADR-RES ovarian) was over 100 µM. The TGI (SN12C renal) was over 100 µM, the TGI (NCI-H226 lung) was over 100 µM and the TGI (A498 renal) was over 100 µM. For the same molecule, the TGI (HT29 colon) was over 100 µM, the TGI (SK-MEL-2 melanoma) was over 100 µM and the TGI (SF-539 CNS) was over 100 µM. For the same molecule, the TGI (OVCAR-5 ovarian) was over 100 µM, the TGI (SK-OV-3 ovarian) was over 100 µM and the TGI (NCI-H23 lung) was over 100 µM. The TGI (SN12K1 renal) was over 100 µM, the TGI (SNB-19 CNS) was over 100 µM and the TGI (XF 498 CNS) was over 100 µM. It also gave a TGI (UACC-62 melanoma) of over 100 µM, a TGI (OVCAR-8 ovarian) of over 100 µM and a TGI (IGROV1 ovarian) of over 100 µM. The TGI (SW-620 colon) was over 100 µM, the TGI (P388/ADR leukemia) was over 100 µM and the TGI (HOP-18 NSCLC) was over 100 µM. For the same molecule, the TGI (SF-295 CNS) was over 100 µM, the TGI (M19-MEL melanoma) was over 100 µM and the TGI (RPMI-8226 leukemia) was over 100 µM. For the same molecule, the TGI (CCRF-CEM leukemia) was over 100 µM, the TGI (SF-268 CNS) was over 100 µM and the TGI (OVCAR-4 ovarian) was over 100 µM. It also gave a TGI (UO-31 renal) of over 100 µM.
For CCSC1=CC(Cc2ccc(OC)cc2)N(C(=O)OC)C1 (stereo not drawn), the TGI (HCC-2998 colon) was over 100 µM, the TGI (SK-MEL-28 melanoma) was over 100 µM and the TGI (HCT-116 colon) was over 100 µM. For the same molecule, the TGI (M14 melanoma) was over 100 µM, the TGI (UACC-257 melanoma) was over 100 µM and the TGI (NCI-H460 lung) was over 100 µM. The TGI (SK-MEL-5 melanoma) was over 100 µM, the TGI (HOP-92 NSCLC) was over 100 µM and the TGI (K-562 leukemia) was over 100 µM. For the same molecule, the TGI (DMS 114 small cell lung) was 73.7 µM, the TGI (RXF-631 renal) was over 100 µM and the TGI (RXF 393 renal) was over 100 µM. It also gave a TGI (KM20L2 colon) of over 100 µM, a TGI (EKVX NSCLC) of over 100 µM and a TGI (SNB-75 CNS) of over 100 µM. For the same molecule, the TGI (COLO 205 colon) was over 100 µM, the TGI (SR leukemia) was over 100 µM and the TGI (HL-60(TB) leukemia) was 60.1 µM. The TGI (HOP-62 NSCLC) was over 100 µM, the TGI (HCT-15 colon) was over 100 µM and the TGI (MALME-3M melanoma) was over 100 µM. The TGI (OVCAR-3 ovarian) was over 100 µM, the TGI (CAKI-1 renal) was over 100 µM and the TGI (LOX IMVI melanoma) was over 100 µM. It also gave a TGI (DLD-1 colon) of over 100 µM, a TGI (NCI-H522 lung) of over 100 µM and a TGI (DMS 273 small cell lung) of over 100 µM. It also gave a TGI (U251 CNS) of over 100 µM, a TGI (A549 NSCLC) of over 100 µM and a TGI (SNB-78 CNS) of over 100 µM. The TGI (KM12 colon) was over 100 µM, the TGI (SN12C renal) was over 100 µM and the TGI (NCI-H226 lung) was over 100 µM. For the same molecule, the TGI (A498 renal) was over 100 µM, the TGI (HT29 colon) was over 100 µM and the TGI (SK-MEL-2 melanoma) was over 100 µM. For the same molecule, the TGI (SF-539 CNS) was over 100 µM, the TGI (786-0 renal) was over 100 µM and the TGI (OVCAR-5 ovarian) was over 100 µM. For the same molecule, the TGI (ACHN renal) was over 100 µM, the TGI (MOLT-4 leukemia) was over 100 µM and the TGI (SK-OV-3 ovarian) was over 100 µM. The TGI (TK-10 renal) was over 100 µM, the TGI (NCI-H23 lung) was over 100 µM and the TGI (LXFL 529 NSCLC) was over 100 µM. It also gave a TGI (SNB-19 CNS) of over 100 µM, a TGI (XF 498 CNS) of over 100 µM and a TGI (UACC-62 melanoma) of over 100 µM. The TGI (OVCAR-8 ovarian) was over 100 µM, the TGI (IGROV1 ovarian) was over 100 µM and the TGI (SW-620 colon) was over 100 µM. The TGI (HOP-18 NSCLC) was over 100 µM, the TGI (SF-295 CNS) was over 100 µM and the TGI (M19-MEL melanoma) was over 100 µM. The TGI (CCRF-CEM leukemia) was over 100 µM, the TGI (SF-268 CNS) was over 100 µM and the TGI (OVCAR-4 ovarian) was over 100 µM. The TGI (UO-31 renal) was over 100 µM.

From PubChem BioAssay (NCI)
